In patent US9073855B2, “BCL-2 selective apoptosis-inducing agents for the treatment of cancer and immune diseases” (AbbVie Inc., priority 2008, dated 2015) one finds Ki and EC50 data, which are given here for 16 compounds.

For one assay, the target named is GST-Bcl-XL (Homo sapiens, UniProt Q07817). Description: TR-FRET binding assay, GST-Bcl-XL with F-Bak peptide probe. The following applies: TR-FRET Binding Affinity, GST-Bcl-XL, F-Bak peptide probe. In short, it runs like this: (§1)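 Ki was derived with Wang's equation for competitive binding of two ligands. The read-out was time-resolved fluorescence after a 3 h room-temperature incubation, using a Tb-labelled antibody donor and the F-Bak peptide acceptor (excitation 340/35 nm). Test compounds entered as DMSO serial dilutions starting at 50 μM, which was the 2× concentration.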

The target in the next assay is GST-Bcl-2 (Homo sapiens, UniProt P10415). The assay can be described thus: TR-FRET binding assay, GST-Bcl-2 with F-Bak peptide probe. The following applies: TR-FRET Binding Affinity, GST-Bcl-2, F-Bak peptide probe. The method, boiled down:
as §1
In general terms: In TR-FRET formats the signal depends on donor and acceptor labels being close together.

The test system of a further assay is FL5.12/Bcl-2 cells. The assay can be described thus: FL5.12/Bcl-2 cell viability assay under IL-3 withdrawal (CellTitre Glo). The class given is cell-based, murine. Particulars: Mus musculus, IL-3 withdrawn 48 hrs, then 24 hrs with compound. In short, it runs like this: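 Murine IL-3-dependent FL5.12 cells stably overexpressing Bcl-2 were deprived of IL-3 (WEHI-3B conditioned medium) for 48 h, then exposed to various compound concentrations for 24 h at 37 °C. Viability read by CellTiter-Glo luminescence.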

Sequence of GST-Bcl-2 (P10415 whole entry): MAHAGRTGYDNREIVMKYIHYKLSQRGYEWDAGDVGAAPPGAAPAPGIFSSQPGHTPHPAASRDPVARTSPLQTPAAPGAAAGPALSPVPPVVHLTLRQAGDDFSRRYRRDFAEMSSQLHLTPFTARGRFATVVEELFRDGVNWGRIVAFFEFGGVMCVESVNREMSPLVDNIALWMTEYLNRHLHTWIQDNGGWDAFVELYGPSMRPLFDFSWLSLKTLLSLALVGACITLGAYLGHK
Sequence of GST-Bcl-XL (Q07817 whole entry): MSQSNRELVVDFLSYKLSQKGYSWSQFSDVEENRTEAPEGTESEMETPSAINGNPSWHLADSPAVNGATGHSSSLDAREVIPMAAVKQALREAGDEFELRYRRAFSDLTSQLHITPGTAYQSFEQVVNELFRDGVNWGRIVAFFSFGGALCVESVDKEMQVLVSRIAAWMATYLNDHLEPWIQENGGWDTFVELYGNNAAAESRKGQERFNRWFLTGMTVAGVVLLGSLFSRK

For the compound `CN1CCC(Nc2ccc(S(=O)(=O)NC(=O)c3ccc(N4CCN(Cc5cc(OCCO)ccc5-c5ccc(Cl)cc5)CC4)cc3Oc3cccc4[nH]ccc34)cc2[N+](=O)[O-])CC1` [Example 221, 4-(4-{[4′-chloro-4-(2-hydroxyethoxy)-1,1′-biphenyl-2-yl]methyl}piperazin-1-yl)-2-(1H-indol-4-yloxy)-N-({4-[(1-methylpiperidin-4-yl)amino]-3-nitrophenyl}sulfonyl)benzamide], the Ki on GST-Bcl-XL was determined as 170 nM; on GST-Bcl-2 it was 0.057 nM. Also, in the assay with FL5.12/Bcl-2 cells, the EC50 amounted to 149 nM.

Take `CC1(C)CCC(CN2CCN(c3ccc(C(=O)NS(=O)(=O)c4ccc(NCCCN5CCNC(=O)C5)c([N+](=O)[O-])c4)c(Oc4ccc5[nH]ccc5c4)c3)CC2)=C(c2ccc(Cl)cc2)C1` [Example 222, 4-(4-{[2-(4-chlorophenyl)-4,4-dimethylcyclohex-1-en-1-yl]methyl}piperazin-1-yl)-2-(1H-indol-5-yloxy)-N-[(3-nitro-4-{[3-(3-oxopiperazin-1-yl)propyl]amino}phenyl)sulfonyl]benzamide]: the inhibition constant Ki on GST-Bcl-XL turned out to be 137 nM; on GST-Bcl-2 it was 0.107 nM. For the same compound, the EC50 in the assay with FL5.12/Bcl-2 cells turned out to be 23.7 nM.

For the compound `CC1(C)CCC(CN2CCN(c3ccc(C(=O)NS(=O)(=O)c4ccc(NCCCN5CCNC(=O)C5)c([N+](=O)[O-])c4)c(Oc4cccc5[nH]ccc45)c3)CC2)=C(c2ccc(Cl)cc2)C1` [Example 223, 4-(4-{[2-(4-chlorophenyl)-4,4-dimethylcyclohex-1-en-1-yl]methyl}piperazin-1-yl)-2-(1H-indol-4-yloxy)-N-[(3-nitro-4-{[3-(3-oxopiperazin-1-yl)propyl]amino}phenyl)sulfonyl]benzamide], the Ki on GST-Bcl-XL worked out at 97.3 nM; on GST-Bcl-2, 0.169 nM. Besides, in the assay on FL5.12/Bcl-2 cells, the EC50 was 37.1 nM.

As to `CN1CCC(Nc2ccc(S(=O)(=O)NC(=O)c3ccc(N4CCN(CC5=C(c6ccc(Cl)cc6)CCC(O)C5)CC4)cc3Oc3ccc4[nH]ccc4c3)cc2[N+](=O)[O-])CC1` (stereo not drawn) [Example 224, 4-(4-{[2-(4-chlorophenyl)-5-hydroxycyclohex-1-en-1-yl]methyl}piperazin-1-yl)-2-(1H-indol-5-yloxy)-N-({4-[(1-methylpiperidin-4-yl)amino]-3-nitrophenyl}sulfonyl)benzamide], the figures for the Ki at GST-Bcl-XL and at GST-Bcl-2 were 0.999 nM and less than 0.01 nM, respectively. The EC50 with FL5.12/Bcl-2 cells was found to be 21.2 nM.

Regarding `O=C(NS(=O)(=O)c1ccc(NC2CCN(C3CCOCC3)CC2)c([N+](=O)[O-])c1)c1ccc(N2CCN(CC3=C(c4ccc(Cl)cc4)CCC(O)C3)CC2)cc1Oc1ccc2[nH]ccc2c1` (stereo not drawn) [Example 225, 4-(4-{[2-(4-chlorophenyl)-5-hydroxycyclohex-1-en-1-yl]methyl}piperazin-1-yl)-2-(1H-indol-5-yloxy)-N-({3-nitro-4-[(1-tetrahydro-2H-pyran-4-ylpiperidin-4-yl)amino]phenyl}sulfonyl)benzamide], the Ki on GST-Bcl-XL turned out to be 3.48 nM; at GST-Bcl-2, 0.01 nM. Moreover, the EC50 in the assay with FL5.12/Bcl-2 cells worked out at 29.9 nM.

Turning to `CN1CCN(Nc2ccc(S(=O)(=O)NC(=O)c3ccc(N4CCN(CC5=C(c6ccc(Cl)cc6)CCC(O)C5)CC4)cc3Oc3ccc4[nH]ccc4c3)cc2[N+](=O)[O-])CC1` (stereo not drawn) [Example 226, 4-(4-{[2-(4-chlorophenyl)-5-hydroxycyclohex-1-en-1-yl]methyl}piperazin-1-yl)-2-(1H-indol-5-yloxy)-N-({4-[(4-methylpiperazin-1-yl)amino]-3-nitrophenyl}sulfonyl)benzamide], the Ki on GST-Bcl-XL stood at 9.93 nM; on GST-Bcl-2, 0.017 nM. For the same compound, the EC50 in the assay with FL5.12/Bcl-2 cells worked out at 23 nM.

In the case of `CC1(C)CCC(CN2CCN(c3ccc(C(=O)NS(=O)(=O)c4ccc(NC5CCN(C6Cc7ccccc7C6)CC5)c([N+](=O)[O-])c4)c(Oc4cccc5[nH]ccc45)c3)CC2)=C(c2ccc(Cl)cc2)C1` [Example 227, 4-(4-{[2-(4-chlorophenyl)-4,4-dimethylcyclohex-1-en-1-yl]methyl}piperazin-1-yl)-N-[(4-{[1-(2,3-dihydro-1H-inden-2-yl)piperidin-4-yl]amino}-3-nitrophenyl)sulfonyl]-2-(1H-indol-4-yloxy)benzamide], the values for the inhibition constant Ki at GST-Bcl-XL and at GST-Bcl-2 were greater than 660 nM and 6.83 nM, respectively. Moreover, the EC50 in the assay on FL5.12/Bcl-2 cells was greater than 500 nM.

In the case of `CC1(C)CCC(CN2CCN(c3ccc(C(=O)NS(=O)(=O)c4ccc(NC5CCN(C6Cc7ccccc7C6)CC5)c([N+](=O)[O-])c4)c(Oc4ccc5[nH]ccc5c4)c3)CC2)=C(c2ccc(Cl)cc2)C1` [Example 228, 4-(4-{[2-(4-chlorophenyl)-4,4-dimethylcyclohex-1-en-1-yl]methyl}piperazin-1-yl)-N-[(4-{[1-(2,3-dihydro-1H-inden-2-yl)piperidin-4-yl]amino}-3-nitrophenyl)sulfonyl]-2-(1H-indol-5-yloxy)benzamide], the Ki was greater than 660 nM on GST-Bcl-XL and 4.67 nM at GST-Bcl-2. The concentration giving a half-maximal response (EC50) with FL5.12/Bcl-2 cells is greater than 500 nM.

`CC1(C)CCC(CN2CCN(c3ccc(C(=O)NS(=O)(=O)c4ccc(NCC5(N6CCOCC6)CCCCC5)c([N+](=O)[O-])c4)c(Oc4ccc5[nH]ccc5c4)c3)CC2)=C(c2ccc(Cl)cc2)C1` [Example 229, 4-(4-{[2-(4-chlorophenyl)-4,4-dimethylcyclohex-1-en-1-yl]methyl}piperazin-1-yl)-2-(1H-indol-5-yloxy)-N-[(4-{[(1-morpholin-4-ylcyclohexyl)methyl]amino}-3-nitrophenyl)sulfonyl]benzamide]: the Ki was greater than 660 nM on GST-Bcl-XL and 49.4 nM on GST-Bcl-2. In addition, the EC50 in the assay on FL5.12/Bcl-2 cells is greater than 500 nM.

As to `CC1(C)CCC(CN2CCN(c3ccc(C(=O)NS(=O)(=O)c4ccc(NC5CCN(Cc6nccs6)CC5)c([N+](=O)[O-])c4)c(Oc4ccc5[nH]ccc5c4)c3)CC2)=C(c2ccc(Cl)cc2)C1` [Example 230, 4-(4-{[2-(4-chlorophenyl)-4,4-dimethylcyclohex-1-en-1-yl]methyl}piperazin-1-yl)-2-(1H-indol-5-yloxy)-N-[(3-nitro-4-{[1-(1,3-thiazol-2-ylmethyl)piperidin-4-yl]amino}phenyl)sulfonyl]benzamide], the Ki at GST-Bcl-XL was greater than 660 nM; on GST-Bcl-2, 8.82 nM. Besides, the EC50 in the assay with FL5.12/Bcl-2 cells came out at 178 nM.

In the case of `CC1(C)CCC(CN2CCN(c3ccc(C(=O)NS(=O)(=O)c4ccc(NC5CCN(Cc6cscn6)CC5)c([N+](=O)[O-])c4)c(Oc4ccc5[nH]ccc5c4)c3)CC2)=C(c2ccc(Cl)cc2)C1` [Example 231, 4-(4-{[2-(4-chlorophenyl)-4,4-dimethylcyclohex-1-en-1-yl]methyl}piperazin-1-yl)-2-(1H-indol-5-yloxy)-N-[(3-nitro-4-{[1-(1,3-thiazol-4-ylmethyl)piperidin-4-yl]amino}phenyl)sulfonyl]benzamide], the results for the Ki at GST-Bcl-XL and on GST-Bcl-2 were greater than 660 nM and 0.918 nM, respectively. Further, the EC50 in the assay on FL5.12/Bcl-2 cells was determined as 50.9 nM.

Turning to `CC1(C)CCC(CN2CCN(c3ccc(C(=O)NS(=O)(=O)c4ccc(NCC5(CO)CCOCC5)c([N+](=O)[O-])c4)c(Oc4ccc5[nH]ccc5c4)c3)CC2)=C(c2ccc(Cl)cc2)C1` [Example 232, 4-(4-{[2-(4-chlorophenyl)-4,4-dimethylcyclohex-1-en-1-yl]methyl}piperazin-1-yl)-N-{[4-({[4-(hydroxymethyl)tetrahydro-2H-pyran-4-yl]methyl}amino)-3-nitrophenyl]sulfonyl}-2-(1H-indol-5-yloxy)benzamide], the figures for the Ki on GST-Bcl-XL and on GST-Bcl-2 were 197 nM and 0.46 nM, respectively. Moreover, the EC50 in the assay with FL5.12/Bcl-2 cells stood at 12.3 nM.

As to `CC1(C)CCC(CN2CCN(c3ccc(C(=O)NS(=O)(=O)c4ccc(NCC5(O)CCCCC5)c([N+](=O)[O-])c4)c(Oc4ccc5[nH]ccc5c4)c3)CC2)=C(c2ccc(Cl)cc2)C1` [Example 238, 4-(4-{[2-(4-chlorophenyl)-4,4-dimethylcyclohex-1-en-1-yl]methyl}piperazin-1-yl)-N-[(4-{[(1-hydroxycyclohexyl)methyl]amino}-3-nitrophenyl)sulfonyl]-2-(1H-indol-5-yloxy)benzamide], the Ki was greater than 660 nM at GST-Bcl-XL and 0.43 nM at GST-Bcl-2. The EC50 in the assay with FL5.12/Bcl-2 cells worked out at 59 nM.

For `COCCNc1ccc(S(=O)(=O)NC(=O)c2ccc(N3CCN(CC4=C(c5ccc(Cl)cc5)CC(C)(C)CC4)CC3)cc2Oc2cccc3[nH]ccc23)cc1[N+](=O)[O-]` [Example 239, 4-(4-{[2-(4-chlorophenyl)-4,4-dimethylcyclohex-1-en-1-yl]methyl}piperazin-1-yl)-2-(1H-indol-4-yloxy)-N-({4-[(2-methoxyethyl)amino]-3-nitrophenyl}sulfonyl)benzamide], the inhibition constant (Ki) came to 108 nM on GST-Bcl-XL and 0.252 nM on GST-Bcl-2. The EC50 in the assay on FL5.12/Bcl-2 cells came to 17.6 nM.

Consider `CC1(C)CCC(CN2CCN(c3ccc(C(=O)NS(=O)(=O)c4ccc(NC5(CO)CCOCC5)c([N+](=O)[O-])c4)c(Oc4ccc5[nH]ccc5c4)c3)CC2)=C(c2ccc(Cl)cc2)C1` [Example 240, 4-(4-{[2-(4-chlorophenyl)-4,4-dimethylcyclohex-1-en-1-yl]methyl}piperazin-1-yl)-N-[(4-{[4-(hydroxymethyl)tetrahydro-2H-pyran-4-yl]amino}-3-nitrophenyl)sulfonyl]-2-(1H-indol-5-yloxy)benzamide], for which the Ki at GST-Bcl-XL was greater than 660 nM; on GST-Bcl-2, 0.83 nM. In addition, the EC50 in the assay with FL5.12/Bcl-2 cells came to 209 nM.

As for `CC1(C)CCC(CN2CCN(c3ccc(C(=O)NS(=O)(=O)c4ccc(NC(CO)C5CCOCC5)c([N+](=O)[O-])c4)c(Oc4ccc5[nH]ccc5c4)c3)CC2)=C(c2ccc(Cl)cc2)C1` (stereo not drawn) [Example 242, 4-(4-{[2-(4-chlorophenyl)-4,4-dimethylcyclohex-1-en-1-yl]methyl}piperazin-1-yl)-N-({4-[(2-hydroxy-1-tetrahydro-2H-pyran-4-ylethyl)amino]-3-nitrophenyl}sulfonyl)-2-(1H-indol-5-yloxy)benzamide], the values for the Ki at GST-Bcl-XL and on GST-Bcl-2 were greater than 660 nM and 1.8 nM, respectively. For the same compound, the concentration giving a half-maximal response (EC50) in the assay on FL5.12/Bcl-2 cells came to 165 nM.

One may read the Ki as a measure of affinity in units of concentration, obtained from inhibition or displacement. A higher Ki goes with lower affinity. What is called EC50 is the concentration that produces a half-maximal response.
